In patent US20100166726A1, “COMPOSITIONS FOR IMPROVING CELLULAR UPTAKE OF A CHEMOTHERAPEUTIC AGENT IN A CELL EXHIBITING MUCIN DEREGULATION” (NORTHEASTERN UNIVERSITY, priority 2007, published 2010):
One block for each molecule: values may come before it.

Assays:
HPAF-II cells [1] = assay: 5-FU cytotoxicity with or without benzyl-α-GalNAc pre-exposure, sulforhodamine B assay; type: cell-based, human
Experimental: The effects of increasing benzyl-α-GalNAc concentrations on cytotoxicity of 5-FU (108 μmol/ml) against HPAF-II cells was first tested. […] The growth inhibitory effect of 5-FU after 24 hr of exposure was determined using sulforhodamine B (Sigma-Aldrich, St. Louis, Mo.) assay the percent of viable cells was calculated as follows: […]

Capan-1 cells [2] = assay: Intracellular uptake of 5-FU by immunofluorescence labeling
Experimental: (§1) Capan-1 and U-87 MG cells were exposed to the maximum non-toxic concentration of benzyl-α-GalNAc for 48 hr followed by 1 hr and 4 hr exposure to 5-FU (50 μmol/ml). The intracellular levels of the drug were determined using a primary antibody against 5-FU followed by FITC-conjugated secondary antibody. Specifically, sterile cover slips were placed in 24-well plates (Corning, N.Y.). Cells were seeded at 2×10^4 per ml in the same 24-well plates. Following a 24 hr incubation period at 37° C. cells was exposed to the maximum non-toxic concentration of benzyl-α-GalNAc solution prepared in cell culture media, the control cells were incubated in growth media without the O-glycosylation inhibitor. Following an additional 48 hr of incubation, each row was washed with 1×PBS and treated with 5-FU prepared in cell growth medium. The intracellular uptake of 5-FU following 1 hr and 4 hr of cell exposure to drug was determined by immunofluorescence labeling. Briefly, the medium containing 5-FU was aspirated and cells were washed twice with 1×PBS. The cells were then fixed with cold methanol for 10 min at −20° C. followed by rinsing with cold acetone. The cells were next washed twice with 1×PBS followed by 30 min rehydration in 1×PBS. For immunolabeling, cells were exposed to 200 μl (1:1000 dilution; stock concentration: 1 mg/ml) of primary antibody against 5-FU (Lampire Biological Laboratories, Pipersville, Pa.) for 1 hr at room temperature. The unassociated primary antibody was removed by washing three times with 1×PBS and cells were then incubated at room temperature with 200 μl (1:1000 dilution; stock concentration: 1 mg/ml) of fluorescein isothiocyanate (FITC)-conjugated goat anti-mouse IgG secondary antibody (Lampire Biological Laboratories, Pipersville, Pa.). Following 1 hr incubation with the secondary antibody, cells were washed twice with 1×PBS to remove any unassociated secondary antibody and the fluorescence intensity was measured using a fluorescence microplate reader (Bio-Tek® Instruments Inc., VT) at excitation wavelength of 485 nm and emission wavelength of 528 nm. The intracellular uptake of 5-FU was observed under a fluorescence microscope. The coverslip from each well was mounted onto a glass microslide (Corning, N.Y.) with SlowFade® Gold antifade reagent (Invitrogen, Carlsbad, Calif.). The images were captured using a combination of fluorescence and DIC microscopic applications at 20× magnification (Olympus BX61WI-Melville, N.Y.).

Capan-1 tumors = assay: Anti-tumoral activity in Capan-1 pancreatic tumor model (tumor volume, histochemical staining, neoplastic cell density); type: in vivo, SCID mice
Experimental: All animal work was performed in the animal facility at Northeastern University, Boston, Mass. in accordance with the institutional guidelines. Female SCID (severe combined immunodeficient mice), 6 to 8 weeks old purchased from Massachusetts General Hospital, Boston, Mass. were used for our study since they have been used successfully for developing human xenografts of pancreatic tumors. To establish the tumors, 2.5×10^6 Capan-I cells in 0.1 ml of cell culture medium were injected into the subcutaneous dorsa of all mice. Mice were weighed daily using a digital weighing balance (AccuSeries®, Fisher Scientific, Arvada, Colo.) and tumor volumes were also measured every day using an electronic digital caliper (Control Company, Friendswood, Tex.). Tumor volumes were calculated using the formula a^2×b×0.52, where “a” is the longer diameter and “b” is the shorter diameter. Once the tumor volumes were approximately 50 mm^3-70 mm^3 the experimental groups received intratumoral injections of benzyl-α-GalNAc (0.1 ml injection; 10 mg/ml) whereas […] at intervals of 48 hr. When the tumor volumes were approximately 100 mm^3 5-FU was administered via the intravenous route. Animals in treatment groups received two injections (0.1 ml) of 5-FU at interval of 4 days whereas control mice received saline (0.1 ml). The total dose of 5-FU administered was 125 mg/kg. At the end of the experiment animals were sacrificed, tumor tissue was surgically removed and fixed in 10% formalin at 4° C. for histochemical staining.
For histochemical staining, paraffin-embedded tissue sections (5 μm) were stained with hematoxylin and eosin (H&E) to evaluate and compare the extent of tissue viability. The tumor sections were scanned and qualitative images captured using brightfield microscopy (Olympus BX61WI, NY). The number of tumor cells in each section was quantified using bioquant imaging software and expressed as percent of total tumor area. To quantify the total tumor area we first traced the outline of the entire tumor section in each field of view (FOV). The pixels within the traced area were then selected and the pixel count was determined by the software. A total of five FOV were analyzed to determine the total pixel count of the tumor area. Microscope stage encoders were used to ensure that no tumor area was counted more than once. Similarly the total pixel count of the neoplastic cells featured in blue in each FOV was determined. The total percent of neoplastic cell density was calculated as follows: […]
For these studies the pancreatic cell line, Capan-1 was used to used to establish a pancreatic tumor model. Capan-1 tumors were established in subcutaneous dorsa of female SCID mice (see, Example 7). […] 5-FU therapy began when the tumor size was approximately 100 mm^3.

U-87 MG cells [3] = assay: 5-FU cytotoxicity with or without benzyl-α-GalNAc pre-exposure, sulforhodamine B assay; type: cell-based, human
Capan-1 cells [4] = assay: as above; type: cell-based, human
HPAF-II cells [5] = assay: Neuraminidase toxicity and effect on 5-FU cytotoxicity, sulforhodamine B assay; type: cell-based, human
Experimental: The enzyme neuraminidase, which cleaves terminal sialic acid residues, was used in these studies (Varki et al., J. Biol. Chem., 258:12465-12471 [1983]). […] The removal of sialic acid residues from cell surface was confirmed by labeling cells with 5 μl/well FITC conjugated MAA lectin for 30 mins. The effects of neuraminidase on CD227 antibody association was determined by labeling cells with 5 μl/well CD227 antibody for 4 hr. […] The effects of neuraminidase on 5-FU cytotoxicity was determined by exposing cells to 0.05 U/ml neuraminidase for 1 hr followed by treatment with 5-FU for 24 hr. Percent cell viability was determined using sulforhodamine B assay.

U-87 MG cells [6] = assay: Intracellular uptake of 5-FU by immunofluorescence labeling; type: cell-based, human
Experimental: as §1

Capan-1 cells [7] = assay: Cytotoxic activity of chemotherapeutic agents with or without benzyl-α-GalNAc pretreatment, sulforhodamine B assay; type: cell-based, human; settings: benzyl-α-GalNAc 48 hr, then drug 24 hr
Experimental: Human pancreatic cancer cell morphology was visualized using light microscopy. Six hydrophilic chemotherapeutic agents namely cisplatin, gemcitabine, carboplatin, methotrexate, doxorubicin, vinblastine and six lipophilic agents namely lomustine, busulfan, camptothecin, etoposide, teniposide and paclitaxel with molecular weights ranging from approximately 200 to 900 were used. Two different concentrations of each drug type were evaluated in the presence and absence of heavily O-glycosylated chains with Benzyl-α-GalNAc as O-glycosylation inhibitor. Cell viability was determined using Sulforhodamine B assay. The percent change in cell viability was used to assess the overall benefit of reducing mucin in Capan-1 cells when different cytotoxic drugs are employed.
The growth inhibitory effect of the chemotherapeutic agent after 24 hr of exposure was determined by sulforhodamine B assay and percent of viable cells was calculated as follows: […]

[8] = 5-FU exposure 1 h, Benzyl-α-GalNAc + (48 hr pre-treatment)
[9] = 5-FU exposure 1 h, Benzyl-α-GalNAc −
[10] = 5-FU exposure 4 h, Benzyl-α-GalNAc + (48 hr pre-treatment)
[11] = 5-FU exposure 4 h, Benzyl-α-GalNAc −

- Intracellular uptake of 5-Fluorouracil, fluorescence intensity (Capan-1 cells [2]; [8]): 7271.4 arbitrary units
- Intracellular uptake of 5-Fluorouracil, fluorescence intensity (Capan-1 cells [2]; [9]): 1696.9 arbitrary units
- Intracellular uptake of 5-Fluorouracil, fluorescence intensity (Capan-1 cells [2]; [10]): 3933.3 arbitrary units
- Intracellular uptake of 5-Fluorouracil, fluorescence intensity (Capan-1 cells [2]; [11]): 4253.0 arbitrary units
- fluorescence staining of intracellular 5-FU (imaging), pre-treated with benzyl-α-GalNAc vs 5-FU alone (Capan-1 cells [2]; 1 hr of exposure to 5-FU (50 μmol/ml)): higher fluorescence staining
- fluorescence staining of intracellular 5-FU (imaging), pre-treated with benzyl-α-GalNAc vs controls (Capan-1 cells [2]; 4 hr of exposure to 5-FU (50 μmol/ml)): no difference
- Intracellular uptake of 5-Fluorouracil, fluorescence intensity (U-87 MG cells [6]; [8]): 2346.9 arbitrary units
- Intracellular uptake of 5-Fluorouracil, fluorescence intensity (U-87 MG cells [6]; [9]): 3757.0 arbitrary units
- Intracellular uptake of 5-Fluorouracil, fluorescence intensity (U-87 MG cells [6]; [10]): 2989.4 arbitrary units
- Intracellular uptake of 5-Fluorouracil, fluorescence intensity (U-87 MG cells [6]; [11]): 3704.9 arbitrary units
- staining patterns of 5-FU (imaging), pre-treated with benzyl-α-GalNAc (U-87 MG cells [6]; 1 hr or 4 hr of exposure to 5-FU (50 μmol/ml)): did not alter
SMILES: O=c1[nH]cc(F)c(=O)[nH]1 [5-FU, 5-fluorouracil]
- percent viability (HPAF-II cells [1]; 5-FU (108 μmol/ml) alone, 24 hr): 77.1±2.5%
- percent viability (HPAF-II cells [1]; pretreated with benzyl-α-GalNAc 0.8 mg/ml for 48 hr, then 5-FU (108 μmol/ml) 24 hr): 63.4±8.6%
- histochemical staining of tumor sections, neoplastic cells (Capan-1 tumors; H&E stained sections): fewer tumor cells
- tumor volume compared to control tumors (saline group) (Capan-1 tumors; benzyl-α-GalNAc intratumoral days 4, 6, 8, 10, 5-FU intravenous, total 125 mg/kg): significantly lower
- Percent Tumor Area (neoplastic cell density as percent of total tumor area) (Capan-1 tumors; bioquant imaging software, tumor sections at end of experiment): 21.0 ± 1.4%
- percent cell viability (U-87 MG cells [3]; 5-FU alone): 37%
- percent cell viability (U-87 MG cells [3]; benzyl-α-GalNAc (0.8 mg/ml) prior to 5-FU): 37%
- percent viability (Capan-1 cells [4]; 5-FU (80 μmol/ml) alone): 65.9±2%
- percent viability (Capan-1 cells [4]; benzyl-α-GalNAc (0.4 mg/ml) followed by 5-FU (80 μmol/ml)): 53.6±3.6%
- percent viability vs 5-FU alone (HPAF-II cells [5]): not significantly altered
- percent viability (HPAF-II cells [5]; human, 24 hr): 49%±4.6

SMILES: CC[C@@]1(O)C(=O)OCc2c1cc1n(c2=O)Cc2cc3ccccc3nc2-1 [Camptothecin]
- Percent increase in chemotherapeutic activity (chemotherapeutic benefit) when pretreated with benzyl-α-GalNAc (Capan-1 cells [7]): 34%
